The numbers were not newly measured in US20260131008A1, “HYALURONIC ACID BASED DRUG DELIVERY SYSTEMS” (priority 2023, published 2026), which cites them from elsewhere.

The conditions of this data set: in vivo.

Take hyaluronic acid [Uncrosslinked HA]: the vitreal half-life result is given as “weeks” and the “vitreal half-life, shortest estimates” value is given as 2 days.
